Measurements: US20190038587A1, “DNA Methylation Landscapes of Post-Traumatic Stress Disorder (PTSD) Susceptibility and Resilience and Novel Therapeutics of PTSD Derived Thereof” (priority 2016, published 2019)

Legend:
long term potentiation = details: literature; cited from earlier work
[1] = test system: susceptible rats (PTSD-like); test: Rat PTSD model (predator scent, incubation of fear): freezing behavior in open field after third reminder; format: in vivo, Sprague-Dawley rats
Experimental: Adult male Sprague-Dawley rats (250-270 gr; Harlan, Rehovot, Israel) were used and housed under conditions of constant temperature (22° C.) and 50% humidity, with a 12-h light-12-h dark cycle. The rats were allowed to habituate to the animal house for 7 days (acclimation). They were housed three per cage, two experimental rats together with a third companion rat. The same three rats remained together until the end of the study. Food and water were provided ad libitum. All experiments were performed between 08:00 and 14:00 in daylight. All animal procedures were approved by the Bar-Ilan University Animal Care Committee and were carried out in accordance with the NIH Guide for the Care and Use of Laboratory Animals.
The model used in this research is based on Kesner et al., 2009^32. This model consists of several stages encompassing […], detailed below and depicted in FIG. 1. The animals are analyzed according to three clinically-relevant clusters of symptoms: manifestation of freezing behavior when (a) situated alone in an open field paradigm (re-experiencing), (b) situated with a habituated companion (social interaction) and (c) after exposure to a hyperarousal event^33. The range of each measured behavioral procedure was determined for all animals after the base-line (week 3). The data collected at baseline was analyzed and the explore procedure was applied using SPSS 11 to define the range of the population. The upper and lower levels of this range were treated as ‘normal baseline’ and alterations from this range were used to define PTSD-like behavior (susceptible).
Each experimental or naive rat was habituated for 7 days to their home cage (the first week of the habituation). For the first stage of the experiment each experimental or naive rat was habituated for 7 days to an open field apparatus together with a companion rat from their home cage, 5 min per day for 7 days (the second week of the experiment). The open field apparatus was a 90×90×30 cm Plexiglas box, which was placed under a camera. The video and computer equipment were situated in a separate room where all video and observation analyses were performed.
After 14 days (Day 1) of habituation, baseline freezing levels of experimental and naive rats were measured prior to stress exposure. Behavioral parameters and measurements are described below (Behavioral Measurements section).
One week later (Day 7), experimental rats were exposed to stress, i.e. predator scent. Individual rats were placed for 30 min in a clean plastic cylinder (diameter: 30 cm, height: 33 cm) containing 125 ml of well-soiled cat litter, used by a cat during the 24 h prior to the experiment. After exposure to stress, each rat was transferred to the open field, and three behavioral parameters were measured (as described in the Behavioral Measurements section below). The cylinder was cleaned between testing of each rat. Temperature and humidity conditions in the stress exposure area were identical to those in the housing cages and open field. The companion rats were not exposed to stress, and were housed in separate cages in a separate housing area during all experiments. The same cat was used for the litter introduced during initial exposure.
One week later (Day 14), rats were re-exposed for 30 minutes to litter with the same texture, but without the cat scent. Behavioral parameters were subsequently tested (as described below).
Three weeks later (Day 35), rats were again exposed for 30 min to litter with the same texture and without cat scent. Behavioral parameters were subsequently tested (as described below). Behavioral data for this testing stage were analyzed according to the division criteria detailed below. Based on the obtained results, experimental rats were defined as either susceptible or resilient.
After exposure to cat litter, each rat was placed in the open field for measurement of PTSD-like behavior. […]

RORA mRNA = RORA mRNA expression in nucleus accumbens following the third reminder; format: in vivo, Sprague-Dawley rats; details: NAc following Re3; SAM vs saline; FIG. 6C
Experimental: (§1) Brains were removed immediately after exposure to litter with cat scent immediately after Re3. Each brain was placed in a Perspex brain matrix and sliced into 1.0 mm segments. The NAc was punched out using a micro dissecting needle of 13-14 G. Brain tissue was frozen at −70° C. until DNA and RNA extraction.
The retinoic biosynthesis and degradation pathway was also enriched with differentially methylated genes. In the susceptible group there was an enrichment in downstream targets of the RAR-Related Orphan Receptor A (RORA), however the impact on level of activity of this pathway could not be derived from this analysis (FIG. 6B). Therefore, the levels of RORA mRNA expression in the different groups was first determined. RORA mRNA expression levels were higher in either control or resilient animals treated with either saline or SAM than in susceptible animals (*p<0.05, *p<0.05 and **p<0.01 respectively) (FIG. 6C), consistent with the possibility that this gene is involved in the pathology of PTSD. […] Therefore, it was hypothesized that the RORA pathway is involved in the hyperarousal behavior which is resistant to SAM's treatment and characteristic of the susceptible PTSD group. The correlation between the mRNA expression of RORA and the three behavioral tests was first measured; as hypothesized, only the hyperarousal behavior was correlated with the mRNA expression of RORA (FIG. 6D). […]

[2] = test system: Beta estradiol downstream pathway; test: Pathway analysis of upstream regulators of differentially methylated genes; set-up: species or system Sprague-Dawley rats; details: susceptible animals treated with SAM relative to susceptible treated with saline; FIG. 6B
Text: If DNA methylation plays a causal role in PTSD, comparative analysis of upstream regulators of genes whose DNA methylation is different in control, susceptible, resilient and SAM treated animals could reveal important putative new pathways and networks involved in PTSD molecular pathology that are candidates for therapeutic intervention (FIG. 6A). […] Other up-regulators of differentially methylated genes are presented in the Heatmap. These pathways are relevant to anxiety and memory pathways such as: sex hormones, glucocorticoid and different cytokines.
In reference to FIG. 6, “A” is coloring representing the p value of each group for the different “upstream-regulator” regulated pathways. Light blue represents low activation and dark blue represents high activation of the pathway. Grey represents pathways that didn't change. Yellow lines and boxes represent sex hormone dependent pathways, blue lines and boxes represent cytokine regulated pathways, pink lines and boxes represent glucocorticoids regulated pathways and green lines and boxes represent retinoic acid (vitamin A) regulated pathways. “B” is circular heat maps representing the different pathways that are influenced by a specific “upstream-upregulator” and are altered in PTSD susceptible and resistant animals. […]

[3] = test system: DNA methylation profile in the NAc; test: Capture bisulfite sequencing and DNA methylation mapping of nucleus accumbens after SAM treatment; format: in vivo, Sprague-Dawley rats
Experimental: as §1
Genomic DNA was extracted using All Prep DNA/RNA Micro Kit, Qiagen (Hilden, Germany)
The SeqCap Epi Enrichment System was used for target bisulfite sequencing of promoters and enhancers in the rat genome. The rat (rn4) target probes were custom designed by utilizing H3K4me1 and H3K4me3 (indicating enhancers and promoters respectively) signals from mouse samples as there is no currently available ChIP data of H3K4me1 and H3K4me3 with respect to the rat species. PuttivH3K4me1 and me3 were selected by mapping and aligning genomic fragments from mouse to the rat and retaining any fragments that share a high similarity and the subsequent associated signals. A total of 53374 target probes have been designed spanning 48072248 base pairs of sequence with a mean probe size of 900 bp. Biotinylated target probes were designed for both strands of bisulfite converted genomic DNA. Bisulfite treated genomic DNA is ligated to methylated NGS adaptors, hybridized to the biotinylated oligonucleotide probes which is followed by a series of washes of off-target DNA sequences and unbound DNA. The resulting isolated specific DNA then undergoes PCR amplification for downstream sequencing on Illumina Hiseq 2000 sequencer. Capture and hybridization is performed as a service for fee by ICRM in Montreal licensed by Roche/Nimblegen. The following bioinformatics workflow is used in the lab. Quality control is done using FastQC to assess sequencing scores and other quality metrics. If necessary, trimming of raw file is performed using Trimmomatic to remove low scoring sequencing results and/or adapter contents. Sequences are aligned to rn4 rat reference genome using Bsmap v2.89. A typical alignment rate of 90%-95% is achieved (30× coverage). The resulting sequencing alignment file (SAM) is converted to binary alignment format (BAM) for downstream analysis and filtering. BAM files are split, merged, and sorted by strand for additional downstream filtering and analysis. Duplicate reads within the BAM files are removed via Picard Tools (v1.93, BROAD institute) strand-specifically and the separate BAM files are merged back together and examined by Bamtools to assess whether the sequences are properly mapped to genome, whether both paired end reads exist (for paired end sequencing), and whether paired end reads are properly paired to each other (for paired end sequencing). Using the final BAM file, methylation ratios and coverage is recovered by provided scripts within Bsmap as well as methylation context. Annotation of genomic locations is performed by HOMER. Computation of differential methylation sites and tiled windows of differentially methylated regions was performed using a logistic regression method with the Methylkit R package in Bioconductor1. FDR adjusted P value significance threshold is held at <0.2.
NAcs were isolated from the animals (n=4-7 per group) following the third reminder and DNA and RNA were extracted as described in the methods. DNA was bisulfite converted, enriched using capture arrays for all predicted promoters and enhancers in the rat genome and was then subjected to next generation sequencing. […]

[4] = susceptible-SAM vs susceptible-saline rats, threshold >10, Q value 0.2, FIG. 4A

Structure (SMILES) | effect on long term potentiation (long term potentiation) | freezing behavior during the 'exploration' test ([1]; Embodiment 2, susceptible rats, SAM 25 mg/kg i.p. 24 h and 1 h before Re-3, vs susceptible-saline, FIG. 3A) | freezing behavior during the 'social interaction' test ([1]; Embodiment 2, susceptible rats, SAM 25 mg/kg i.p. 24 h and 1 h before Re-3, vs susceptible-saline, FIG. 3B) | freezing behavior during the 'hyperarousal' test ([1]; Embodiment 2, susceptible rats, SAM 25 mg/kg i.p. 24 h and 1 h before Re-3, vs susceptible-saline, FIG. 3C) | freezing behavior during the 'exploration' test ([1]; Embodiment 4, susceptible rats, SAM 25 mg/kg and/or retinoic acid 2 mg/kg i.p. 24 h and 1 h before Re-3, vs susceptible-RA and susceptible-saline, FIG. 7A) | freezing behavior during the 'social interaction' test ([1]; Embodiment 4, susceptible rats, SAM 25 mg/kg and/or retinoic acid 2 mg/kg i.p. 24 h and 1 h before Re-3, vs susceptible-RA and susceptible-saline, FIG. 7B) | fold change in freezing behavior in 'exploration' and 'social interaction' tests (from Re-2 to Re-3) ([1]; susceptible-treated rats, FIG. 3D-G) | fold change in freezing behavior in the 'hyperarousal' test (from Re-2 to Re-3) ([1]; susceptible-treated rats, FIG. 3H-I) | level of expression of RORA (mRNA) (RORA mRNA) | state of activity of Beta estradiol downstream pathway [2] | CGs sites differentially methylated in the susceptible animals and reversed by the SAM treatment ([3]; FIG. 4A-B) | CG sites differentially methylated in both the susceptible and the resilient rats affected by SAM ([3]; FIG. 4C-D) | fraction of total susceptible sites reversed by SAM treatment ([3]; sites altered in susceptible rats relative to controls) | CGs sites that were de-methylated [3, 4] | CGs sites that were hyper-methylated [3, 4]
Nc1ncn([C@H]2C[C@H](O)[C@@H](CO)O2)c(=O)n1 [5-aza-2-deoxycytidine] | inhibited long term potentiation |  |  |  |  |  |  |  |  |  |  |  |  |  | 
C[S+](CC[C@H](N)C(=O)O)C[C@H]1O[C@@H](n2cnc3c(N)ncnc32)[C@H](O)[C@@H]1O (stereo partly drawn) [SAM, S-adenosylmethionine] |  | significantly decreased | significantly decreased | no difference in freezing behavior | significantly decreased | significantly decreased | effective in reducing these behaviors | ineffective in changing freezing behavior | no effect | inhibited | 140 CGs sites | 38 CG sites | 30% | 599 CGs sites | 363 CGs sites
